Measurements published in US9024044B2, “Heteroarylcarboxylic acid ester derivative” (Ajinomoto Co., Inc., priority 2012, dated 2015).
pKi: −log10 of the molar value. Counter-ions that a name gives are not always drawn.

Tests used:
[1] = target: recombinant human enteropeptidase (Homo sapiens (Human), UniProt P98073); experiment: Measurement of enteropeptidase inhibitory activity; type: biochemical; conditions: substrate Gly-Asp-Asp-Asp-Asp-Lys-β-Naphtylamide, Tris-HCl pH 8.0, Dixon plot
Experimental: Measurement of Enteropeptidase Inhibitory Activity
Using a 96 well plate (#3915, Costar), a test compound (25 μL), 400 mM Tris-HCl buffer (pH 8.0, 25 μL) and 0.5 mg/mL fluorescence enzyme substrate (Gly-Asp-Asp-Asp-Asp-Lys-β-Naphtylamide, 25 μL) were mixed, and recombinant human enteropeptidase (R&D Systems, Inc., 25 μL) was added. Using a fluorescence plate reader fmax (Molecular Devices, Inc.), the reaction rate was measured from the time-course changes at excitation wavelength 320 nm and fluorescence wavelength 405 nm. The Ki value was calculated from the concentration of the test compound, reciprocal of reaction rate, and Km value of the enzyme substrate, and by using Dixon plot.

[2] = target: human trypsin (Homo sapiens, UniProt P07477); experiment: Measurement of trypsin inhibitory activity; type: biochemical; conditions: substrate Boc-Phe-Ser-Arg-AMC, Tris-HCl pH 8.0, Dixon plot
Experimental: Measurement of Trypsin Inhibitory Activity
Using a 96 well plate (#3915, Costar), a test compound (25 μL) was mixed with 20 μM fluorescence enzyme substrate (Boc-Phe-Ser-Arg-AMC, 50 μL) mixed with 200 mM Tris-HCl buffer (pH 8.0), and human trypsin (Sigma, 25 μL) was added. Using a fluorescence plate reader fmax (Molecular Devices, Inc.), the reaction rate was measured from the time-course changes at excitation wavelength 355 nm and fluorescence wavelength 460 nm. The Ki value was calculated from the concentration of the test compound, reciprocal of reaction rate, and Km value of the enzyme substrate, and by using Dixon plot.

Sequence of recombinant human enteropeptidase (P98073 whole entry): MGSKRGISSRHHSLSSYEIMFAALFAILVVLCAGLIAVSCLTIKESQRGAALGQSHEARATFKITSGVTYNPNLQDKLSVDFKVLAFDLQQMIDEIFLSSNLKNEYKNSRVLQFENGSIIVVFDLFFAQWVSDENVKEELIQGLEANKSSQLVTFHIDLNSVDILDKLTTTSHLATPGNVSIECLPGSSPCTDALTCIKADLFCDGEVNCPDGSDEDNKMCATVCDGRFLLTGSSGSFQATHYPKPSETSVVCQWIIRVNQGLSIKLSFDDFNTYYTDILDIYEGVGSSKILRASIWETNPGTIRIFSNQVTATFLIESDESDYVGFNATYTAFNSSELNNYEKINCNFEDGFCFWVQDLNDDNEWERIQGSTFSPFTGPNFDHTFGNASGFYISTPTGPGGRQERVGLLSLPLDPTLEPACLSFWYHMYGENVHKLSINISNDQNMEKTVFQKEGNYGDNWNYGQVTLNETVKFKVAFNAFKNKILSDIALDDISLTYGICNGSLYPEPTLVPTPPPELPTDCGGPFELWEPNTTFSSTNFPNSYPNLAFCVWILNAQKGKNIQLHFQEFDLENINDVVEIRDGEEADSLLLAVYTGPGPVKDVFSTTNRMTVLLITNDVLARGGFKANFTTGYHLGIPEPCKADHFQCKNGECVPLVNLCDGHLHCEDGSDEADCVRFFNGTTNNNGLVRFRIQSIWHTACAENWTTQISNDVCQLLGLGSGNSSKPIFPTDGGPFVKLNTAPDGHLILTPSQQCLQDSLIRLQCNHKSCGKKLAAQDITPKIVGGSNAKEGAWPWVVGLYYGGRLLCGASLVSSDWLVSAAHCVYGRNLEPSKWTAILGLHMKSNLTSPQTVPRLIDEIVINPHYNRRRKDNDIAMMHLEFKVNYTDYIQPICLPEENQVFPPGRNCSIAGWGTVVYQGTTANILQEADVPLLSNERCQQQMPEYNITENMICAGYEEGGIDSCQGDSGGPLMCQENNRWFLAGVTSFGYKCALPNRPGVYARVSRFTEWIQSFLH

`N=C(N)c1ccc(OC(=O)c2ccc(CC3(C(=O)N[C@@H](CC(=O)O)C(=O)O)CCC3)s2)c(F)c1` [Compound 1, N-[1{5-(4-amidino-2-fluorophenoxycarbonyl)thiophen-2-ylmethyl}-cyclobutylcarbonyl]-1-aspartic acid trifluoroacetic acid salt] showed a pKi [1] of 9.85 and a pKi [2] of 9.21.
Compound `N=C(N)c1ccc(OC(=O)c2ccc(CC3(C(=O)N[C@@H](CC(=O)O)C(=O)O)CCCC3)s2)c(F)c1` [Compound 2, N-{1-[5-(4-amidino-2-fluorophenoxycarbonyl)thiophen-2-ylmethyl]-2-cyclopentylcarbonyl}-1-aspartic acid trifluoroacetic acid salt] has a pKi [1] of 9.14 and a pKi [2] of 8.39.
`CC(C)(Cc1ccc(C(=O)Oc2ccc(C(=N)N)cc2F)s1)C(=O)N[C@@H](CO)C(=O)O` [Compound 4] showed a pKi [1] of 9.34 and a pKi [2] of 9.12.
With `C=CCN(CC(=O)O)C(=O)C(C)(C)Cc1ccc(C(=O)Oc2ccc(C(=N)N)cc2F)s1` [Compound 5] the pKi [1] was 9.62 and the pKi [2] was 9.30.
`CC(C)(Cc1ccc(C(=O)Oc2ccc(C(=N)N)cc2F)s1)C(=O)NC(C)(C)C(=O)O` [Compound 6] gave a pKi [1] of 9.16 and a pKi [2] of 9.02.
For `CN(CC(=O)O)C(=O)C(C)(C)Cc1ccc(C(=O)Oc2ccc(C(=N)N)cc2F)s1` [Compound 7], the pKi [1] was 9.39 and the pKi [2] was 8.88.
In the case of `CC(C)(Cc1ccc(C(=O)Oc2ccc(C(=N)N)cc2F)s1)C(=O)N1CCC[C@H]1C(=O)O` [Compound 8], the pKi [1] was 9.06 and the pKi [2] was 8.77.
With `CC(C)[C@H](NC(=O)C(C)(C)Cc1ccc(C(=O)Oc2ccc(C(=N)N)cc2F)s1)C(=O)O` [Compound 9, N-{3-[5-(4-amidino-2-fluoro-phenoxycarbonyl)thiophen-2-yl]-2,2-dimethylpropionyl}-1-valine hydrochloride] the pKi [1] was 9.10 and the pKi [2] was 8.69.
`CCC(CC)(Cc1ccc(C(=O)Oc2ccc(C(=N)N)cc2F)s1)C(=O)N[C@@H](CO)C(=O)O` [Compound 11, N-{3-[5-(4-amidino-2-fluoro-phenoxycarbonyl)thiophen-2-yl]-2,2-diethylpropionyl}-L-serine hydrochloride] showed a pKi [1] of 9.39 and a pKi [2] of 8.73.
Compound `CCC(CC)(Cc1ccc(C(=O)Oc2ccc(C(=N)N)cc2F)s1)C(=O)N[C@H](CO)C(=O)O` [Compound 12] has a pKi [1] of 9.03 and a pKi [2] of 8.75.
`CCC(CC)(Cc1ccc(C(=O)Oc2ccc(C(=N)N)cc2F)s1)C(=O)NCCC(=O)O` [Compound 14] was tested, and the pKi [1] was 9.00 and the pKi [2] was 8.60.
`CCC(CC)(Cc1ccc(C(=O)Oc2ccc(C(=N)N)cc2F)s1)C(=O)N[C@H](C(=O)O)C(C)O` (some centres unmarked) [Compound 15] gave a pKi [1] of 9.08 and a pKi [2] of 8.76.
In the case of `CCC(CC)(Cc1ccc(C(=O)Oc2ccc(C(=N)N)cc2F)s1)C(=O)N1CCC[C@H]1C(=O)O` [Compound 17], the pKi [1] was 8.77 and the pKi [2] was 8.20.
In the case of `CCC(CC)(Cc1ccc(C(=O)Oc2ccc(C(=N)N)cc2F)s1)C(=O)O` [Compound 18, 3-[5-(4-amidino-2-fluorophenoxycarbonyl)thiophen-2-yl]-2,2-diethylpropanoic acid trifluoroacetic acid salt], the pKi [1] was 8.91 and the pKi [2] was 8.60.
Compound `CCC(CC)(Cc1ccc(C(=O)Oc2ccc(C(=N)N)cc2F)s1)C(=O)N[C@@H](CC(=O)O)C(=O)O` [Compound 19] has a pKi [1] of 9.48 and a pKi [2] of 9.09.
In the case of `CCCN(CC(=O)O)C(=O)C(CC)(CC)Cc1ccc(C(=O)Oc2ccc(C(=N)N)cc2F)s1` [Compound 20], the pKi [1] was 8.58 and the pKi [2] was 8.10.
`CCC(CC)(Cc1ccc(C(=O)Oc2ccc(C(=N)N)cc2F)s1)C(=O)N(C)CC(=O)O` [Compound 21, N-{3-[5-(4-amidino-2-fluoro-phenoxycarbonyl)thiophen-2-yl]-2,2-diethylpropionyl}-sarcosine hydrochloride] showed a pKi [1] of 9.06 and a pKi [2] of 8.75.
With `CCC(CC)(Cc1ccc(C(=O)Oc2ccc(C(=N)N)cc2F)s1)C(=O)N1CCC[C@@H]1C(=O)O` [Compound 22] the pKi [1] was 9.00 and the pKi [2] was 8.45.
With `CCC(CC)(Cc1ccc(C(=O)Oc2ccc(C(=N)N)cc2F)s1)C(=O)N[C@H](CC(=O)O)C(=O)O` [Compound 25] the pKi [1] was 9.59 and the pKi [2] was 8.98.
